Like-named read-outs stand apart in the source and are kept apart here.
What was measured:
[1] = Plasma pharmacokinetic parameters following intravenous (IV) or oral (PO) administration in rats; format: in vivo, Sprague-Dawley rats; conditions: rat; for Vd: read-out: Vss obs; for AUC / bioavailability: oral; for Total clearance as % liver blood flow: IV; for Plasma concentrations post 8 hr: IV 0.5 mg/kg and PO 2.5 mg/kg; for F: PO 2.5 mg/kg vs IV 0.5 mg/kg
In short: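 Fasted male Sprague-Dawley rats (230-250 g, n=2/group), dosed 0.5 mg/kg IV (jugular) or 2.5 mg/kg PO gavage in water. Plasma sampled 2–1440 min, analyzed by LC-MS/MS; non-compartmental analysis with nominal doses/times gave AUC, Cmax, Tmax, CL, Vss, MRTlast, F.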

[2] = molecular target: T1, A2A receptor (Homo sapiens, UniProt P29274); test: Radioligand receptor binding assay, A2A receptor; conditions: cell membranes overexpressing A2A receptor, read-out: Potency Ki A2A
T1 construct: purchased
In short: (§1)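 Membranes from cell lines overexpressing human A2A, A1 or A3 receptors were incubated 60 min at room temperature with the receptor-appropriate [3H] tracer. After filtration and washing in 50 mM Tris HCl pH 7.5, bound label was counted by scintillation. IC50 came from nonlinear regression and Ki from the Cheng-Prusoff equation.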

[3] = molecular target: T2, A1 receptor (Homo sapiens, UniProt P30542); test: Radioligand receptor binding assay, A1 receptor; conditions: cell membranes overexpressing A1 receptor, read-out: Potency Ki A1
T2 construct: purchased
T2 sequence (P30542 1-326): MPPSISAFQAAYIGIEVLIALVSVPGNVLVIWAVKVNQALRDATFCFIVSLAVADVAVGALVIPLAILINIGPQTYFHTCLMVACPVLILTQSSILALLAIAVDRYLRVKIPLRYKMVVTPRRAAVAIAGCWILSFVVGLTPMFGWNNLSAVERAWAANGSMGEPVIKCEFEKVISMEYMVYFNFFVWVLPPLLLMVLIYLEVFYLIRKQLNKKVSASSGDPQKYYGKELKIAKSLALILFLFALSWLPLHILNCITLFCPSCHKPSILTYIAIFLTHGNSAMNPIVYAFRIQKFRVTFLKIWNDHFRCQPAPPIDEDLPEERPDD
In short: as §1

[4] = male, Sprague-Dawley, plasma, intravenous, 0.5 mg/kg, Table 2 summary of Example 27, values marked 1 are the average of experiments
[5] = male, Sprague-Dawley, plasma, iv, 0.5 mg/kg, IV 0.5 mg/kg, injectable water
[6] = male, Sprague-Dawley, plasma, 2.5 mg/kg, Table 2 summary of Example 27, values marked 1 are the average of experiments
[7] = male, Sprague-Dawley, plasma, po, 2.5 mg/kg, PO 2.5 mg/kg via gavage, injectable water
[8] = male, Sprague-Dawley, plasma, po, 2.5 mg/kg, PO 2.5 mg/kg via gavage, injectable water, read-out: Cmax
[9] = male, Sprague-Dawley, plasma, po, 2.5 mg/kg, PO 2.5 mg/kg via gavage, injectable water, read-out: Tmax
[10] = IV 0.5 mg/kg, injectable water, listed as Compound 1 (#1), 0.5 mg/kg
[11] = IV 0.5 mg/kg, injectable water, listed as Compound 1 (#2), 0.5 mg/kg
[12] = PO 2.5 mg/kg via gavage, injectable water, listed as Compound 1 (#1), 2.5 mg/kg
[13] = PO 2.5 mg/kg via gavage, injectable water, listed as Compound 1 (#2), 2.5 mg/kg
[14] = IV 0.5 mg/kg, injectable water, listed as Compound 4 (#2), 0.5 mg/kg
[15] = PO 2.5 mg/kg via gavage, injectable water, listed as Compound 4 (#2), 2.5 mg/kg

T1 sequence (P29274 whole entry): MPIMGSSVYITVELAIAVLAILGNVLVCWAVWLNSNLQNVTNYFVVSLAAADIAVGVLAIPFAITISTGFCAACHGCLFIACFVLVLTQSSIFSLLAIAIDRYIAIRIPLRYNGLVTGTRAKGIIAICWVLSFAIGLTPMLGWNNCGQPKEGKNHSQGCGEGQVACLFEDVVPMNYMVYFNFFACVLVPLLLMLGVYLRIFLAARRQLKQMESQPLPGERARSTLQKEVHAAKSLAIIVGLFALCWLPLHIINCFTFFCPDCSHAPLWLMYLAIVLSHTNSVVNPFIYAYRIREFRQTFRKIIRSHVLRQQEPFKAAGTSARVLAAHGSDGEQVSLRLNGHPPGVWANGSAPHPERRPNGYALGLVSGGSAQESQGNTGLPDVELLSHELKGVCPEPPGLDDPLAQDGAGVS

COCCOc1ccc(N2CCN(CCN(C)c3cc4nc(-c5ncco5)nn4c(N)n3)CC2)cc1 [Compound 1, N^7-(2-{4-[4-(2-methoxyethoxy)phenyl]piperazin-1-yl}ethyl)-N^7-methyl-2-(1,3-oxazol-2-yl)[1,2,4]triazolo[1,5-c]pyrimidine-5,7-diamine]
clearance [1, 4]: 31 mL/min/kg | AUC(0-inf) [1, 5]: 340 ng·h/mL | AUC(0-t) [1, 5]: 335 ng·h/mL | MRT last [1, 5]: 84.6 to 87 min | clearance [1, 5]: 24.6 to 36.1 mL/min/kg | Cmax ([1]; male, Sprague-Dawley, plasma, iv, 0.5 mg/kg, IV 0.5 mg/kg, injectable water, read-out: Cmax): 311 ng/mL | Tmax ([1]; male, Sprague-Dawley, plasma, iv, 0.5 mg/kg, IV 0.5 mg/kg, injectable water, read-out: Tmax): 2 min | Vd [1, 5]: 2.17 to 3.44 L/kg | AUC [1, 6]: 969 ng·h/mL | bioavailability [1, 6]: 71% | AUC(0-inf) [1, 7]: 1280 ng·h/mL | AUC(0-t) [1, 7]: 1220 ng·h/mL | Cmax [1, 8]: 242 to 367 ng/mL | Tmax [1, 9]: 45 to 60 min | Total clearance as % liver blood flow [1]: 40-60 % liver blood flow | Plasma concentrations post 8 hr [1]: below the limit of quantitation | AUCinf [1, 10]: 233 ng·h/mL | AUClast [1, 10]: 228 ng·h/mL | CL [1, 10]: 36.1 mL/min/kg | Cmax [1, 10]: 207 ng/mL | MRTlast [1, 10]: 84.6 min | Vss obs [1, 10]: 3.44 L/kg | CL [1, 11]: 24.6 mL/min/kg | MRTlast [1, 11]: 87 min | Vss obs [1, 11]: 2.17 L/kg | AUCinf [1, 12]: 777 ng·h/mL | AUClast [1, 12]: 718 ng·h/mL | Cmax [1, 12]: 242 ng/mL | Tmax [1, 12]: 45 min | Cmax [1, 13]: 367 ng/mL | Tmax [1, 13]: 60 min | F ([1]; listed as Compound 1 (#1)): 66.8% | F ([1]; listed as Compound 1 (#2)): 75.5% | Ki [2]: 0.006 µM | Ki [3]: 50 µM

COCCOc1cnc(N2CCN(CCN(C)c3cc4nc(-c5ncco5)nn4c(N)n3)CC2)c(F)c1 [Compound 4, N^7-(2-{4-[3-fluoro-5-(2-methoxyethoxy)pyridin-2-yl]piperazin-1-yl}ethyl)-N^7-methyl-2-(1,3-oxazol-2-yl)[1,2,4]triazolo[1,5-c]pyrimidine-5,7-diamine]
clearance [1, 4]: 34 mL/min/kg | AUC(0-inf) [1, 5]: 251 ng·h/mL | AUC(0-t) [1, 5]: 249 ng·h/mL | MRT last [1, 5]: 53.4 min | clearance [1, 5]: 26.8 to 33.6 mL/min/kg | Vd [1, 5]: 1.93 L/kg | AUC [1, 6]: 898 ng·h/mL | bioavailability [1, 6]: 78% | AUC(0-inf) [1, 7]: 978 ng·h/mL | AUC(0-t) [1, 7]: 898 ng·h/mL | MRT last [1, 7]: 153 min | Cmax [1, 8]: 231 ng/mL | Tmax [1, 9]: 30 to 45 min | Total clearance as % liver blood flow [1]: 45-56 % liver blood flow | Plasma concentrations post 8 hr [1]: below the limit of quantitation | CL ([1]; IV 0.5 mg/kg, injectable water, listed as Compound 4 (#1), 0.5 mg/kg): 33.6 mL/min/kg | AUCinf [1, 14]: 312 ng·h/mL | AUClast [1, 14]: 310 ng·h/mL | CL [1, 14]: 26.8 mL/min/kg | MRTlast [1, 14]: 54.8 min | Tmax ([1]; PO 2.5 mg/kg via gavage, injectable water, listed as Compound 4 (#1), 2.5 mg/kg): 45 min | AUCinf [1, 15]: 707 ng·h/mL | AUClast [1, 15]: 662 ng·h/mL | Cmax [1, 15]: 172 ng/mL | Tmax [1, 15]: 30 min | F ([1]; listed as Compound 4 (#1)): 77.8% | F ([1]; listed as Compound 4 (#2)): 45.4% | Ki [2]: 0.002 µM | Ki [3]: 14 µM
